We go through two molecules from ChEMBL document CHEMBL4610090, “Oleanolic Acid Ameliorates Benign Prostatic Hyperplasia by Regulating PCNA-Dependent Cell Cycle Progression In Vivo and In Vitro” (J Nat Prod, 2020).

By inhibition in vivo is commonly meant the relative decrease from the control value, in per cent.

Calls of active or inactive are those of the source. The calls are words filed in the database; no cut-off is given here.

The test system of series [1] is Rattus norvegicus. Description: Downregulation of prostate Bcl-xL expression in Sprague-Dawley rat model of testosterone propionate-induced benign prostatic hyperplasia at 10 mg/kg, po by Western blot analysis. The format is functional, organism-based.
Series [2] deals with Rattus norvegicus. Description: Suppression of prostate tissue weight in Sprague-Dawley rat model of testosterone propionate-induced benign prostatic hyperplasia at 10 mg/kg, po relative to control. The format is functional.
Series [3] deals with Rattus norvegicus. Description: Suppression of 5-alpha reductase2 mRNA expression in Sprague-Dawley rat model of testosterone propionate-induced benign prostatic hyperplasia at 10 mg/kg, po by qRT-PCR method. Format: functional, organism-based. A general note: Real-time PCR tracks product formation cycle by cycle.
Series [4] has as its system Rattus norvegicus. Put plainly: Induction of PARP1 cleavage in prostate tissue of Sprague-Dawley rat model of testosterone propionate-induced benign prostatic hyperplasia at 10 mg/kg, po by Western blot analysis. Format: functional, organism-based.
Series [5] has as its system Rattus norvegicus. Put plainly: Downregulation of prostate Bcl2 expression in Sprague-Dawley rat model of testosterone propionate-induced benign prostatic hyperplasia at 10 mg/kg, po by Western blot analysis. Format: functional, organism-based.
In series [6] the test system is Rattus norvegicus. Put plainly: Suppression of serum DHT level in Sprague-Dawley rat model of testosterone propionate-induced benign prostatic hyperplasia at 10 mg/kg, po by ELISA. The format is functional, organism-based.
The test system of series [7] is Rattus norvegicus. Put plainly: Downregulation of prostate Bcl-xL expression in Sprague-Dawley rat model of testosterone propionate-induced benign prostatic hyperplasia at 1 to 10 mg/kg, ip by Western blot analysis. Format: functional, organism-based. A general note: In western blotting, separated proteins are transferred to a membrane and probed.
In series [8] the test system is Rattus norvegicus. Put plainly: Suppression of prostate epithelial thickness in Sprague-Dawley rat model of testosterone propionate-induced benign prostatic hyperplasia at 1 mg/kg, ip by hematoxylin and eosin staining-based microscopic analysis relative to control. Format: functional.
For series [9], the system named is Rattus norvegicus. Description: Induction of PARP1 cleavage in prostate tissue of Sprague-Dawley rat model of testosterone propionate-induced benign prostatic hyperplasia at 10 mg/kg, ip by Western blot analysis. Format: functional, organism-based.
For series [10], the system named is Rattus norvegicus. Put plainly: Downregulation of Cyclin E expression in prostate tissue of Sprague-Dawley rat model of testosterone propionate-induced benign prostatic hyperplasia at 1 to 10 mg/kg, ip by Western blot analysis. Format: functional, organism-based.
A short description of series [11]: Toxicity in Sprague-Dawley rat model of testosterone propionate-induced benign prostatic hyperplasia assessed as effect on animal health at 1 to 10 mg/kg, ip. The format is organism-based. The conditions noted are these: in vivo.
Series [12] has as its target Proliferating cell nuclear antigen (Homo sapiens) (UniProt P12004). Description: Inhibition of PCNA-mediated cell cycle progression in human BPH-1 cells assessed as reduction in cdk4 level at 125 to 500 uM after 24 hrs by immunoblot analysis. Format: cell-based.
Series [13] concerns Rattus norvegicus. Description: Downregulation of Cyclin D1 expression in prostate tissue of Sprague-Dawley rat model of testosterone propionate-induced benign prostatic hyperplasia at 1 to 10 mg/kg, ip by Western blot analysis. Format: functional, organism-based.
In series [14] the test system is Rattus norvegicus. Put plainly: Downregulation of Cdk4 expression in prostate tissue of Sprague-Dawley rat model of testosterone propionate-induced benign prostatic hyperplasia at 1 to 10 mg/kg, ip by Western blot analysis. Format: functional, organism-based.
The test system of series [15] is Rattus norvegicus. Put plainly: Downregulation of Cdk2 expression in prostate tissue of Sprague-Dawley rat model of testosterone propionate-induced benign prostatic hyperplasia at 1 to 10 mg/kg, ip by Western blot analysis. The format is functional, organism-based.
The target of series [16] is Proliferating cell nuclear antigen (Homo sapiens) (UniProt P12004). Description: Inhibition of PCNA-mediated cell cycle progression in human BPH-1 cells assessed as reduction in cyclin D level at 250 to 500 uM after 24 hrs by immunoblot analysis. Format: cell-based.
Proliferating cell nuclear antigen (Homo sapiens), sequence (P12004 whole entry): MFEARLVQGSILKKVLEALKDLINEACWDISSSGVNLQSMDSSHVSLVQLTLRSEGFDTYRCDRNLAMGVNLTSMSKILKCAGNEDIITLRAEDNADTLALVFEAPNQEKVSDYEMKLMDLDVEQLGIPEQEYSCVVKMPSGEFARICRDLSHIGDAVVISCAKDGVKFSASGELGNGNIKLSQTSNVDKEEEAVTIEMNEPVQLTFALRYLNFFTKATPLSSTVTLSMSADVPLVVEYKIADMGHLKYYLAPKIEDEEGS
The test system of series [17] is BPH-1. Put plainly: Downregulation of PCNA expression in human BPH1 cells at 125 to 500 uM after 24 hrs by immunoblot analysis. Format: functional, cell-based.
In series [18] the test system is BPH-1. Description: Cytotoxicity against human BPH1 cells at 62.5 to 1000 uM by MTT assay. Format: functional, cell-based.
For series [19], the system named is Rattus norvegicus. Description: Suppression of 5-alpha reductase2 mRNA expression in Sprague-Dawley rat model of testosterone propionate-induced benign prostatic hyperplasia at 1 to 10 mg/kg, ip by qRT-PCR method. Format: functional, organism-based.
The test system of series [20] is Rattus norvegicus. Put plainly: Downregulation of prostate Bcl2 expression in Sprague-Dawley rat model of testosterone propionate-induced benign prostatic hyperplasia at 1 to 10 mg/kg, ip by Western blot analysis. The format is functional, organism-based.
Series [21] has as its system Rattus norvegicus. Description: Downregulation of PCNA mRNA expression in prostate tissue of Sprague-Dawley rat model of testosterone propionate-induced benign prostatic hyperplasia at 10 mg/kg, ip by qRT-PCR method. Format: functional.
Series [22] can be described thus: Toxicity in Sprague-Dawley rat model of testosterone propionate-induced benign prostatic hyperplasia assessed as effect on body weight at 1 to 10 mg/kg, ip. Format: organism-based. Conditions: in vivo.
The subject of series [23] is Rattus norvegicus. Put plainly: Suppression of serum DHT level in Sprague-Dawley rat model of testosterone propionate-induced benign prostatic hyperplasia at 1 to 10 mg/kg, ip by ELISA. Format: functional, organism-based. (An ELISA detects its analyte on a solid surface through an enzyme-linked reagent.)
For series [24], the system named is Rattus norvegicus. Description: Downregulation of PCNA mRNA expression in prostate tissue of Sprague-Dawley rat model of testosterone propionate-induced benign prostatic hyperplasia at 1 mg/kg, ip by qRT-PCR method. The format is functional.
Series [25] deals with Rattus norvegicus. Description: Suppression of prostate tissue weight in Sprague-Dawley rat model of testosterone propionate-induced benign prostatic hyperplasia at 10 mg/kg, ip relative to control. Format: functional.
A short description of series [26]: Toxicity in Sprague-Dawley rat model of testosterone propionate-induced benign prostatic hyperplasia assessed as behavioural changes at 1 to 10 mg/kg, ip. The conditions noted are these: in vivo. Format: organism-based.
In series [27] the test system is Rattus norvegicus. Put plainly: Downregulation of PCNA expression in prostate tissue of Sprague-Dawley rat model of testosterone propionate-induced benign prostatic hyperplasia at 1 to 10 mg/kg, ip by Western blot analysis. Format: functional, organism-based.
In series [28] the test system is Rattus norvegicus. Description: Suppression of prostate tissue weight in Sprague-Dawley rat model of testosterone propionate-induced benign prostatic hyperplasia at 1 mg/kg, ip relative to control. The format is functional.
Series [29] relates to Rattus norvegicus. Description: Suppression of prostate epithelial thickness in Sprague-Dawley rat model of testosterone propionate-induced benign prostatic hyperplasia at 10 mg/kg, ip by hematoxylin and eosin staining-based microscopic analysis relative to control. The format is functional.
Series [30] deals with Rattus norvegicus. Description: Downregulation of PCNA […] expression in prostate tissue of Sprague-Dawley rat model of testosterone propionate-induced benign prostatic hyperplasia at 1 to 10 mg/kg, ip by immunohistochemical analysis. Format: functional, organism-based.

As for `CC(C)(C)NC(=O)[C@H]1CC[C@H]2[C@@H]3CC[C@H]4NC(=O)C=C[C@]4(C)[C@H]3CC[C@]12C` [FINASTERIDE], the outcome in [1], in series [4], in series [5] and in series [6] was Active. The molecule also yielded an inhibition in vivo at 10 mg/kg in series [2] of 32.5%. Besides, the inhibition entry in series [3] is “Active”.

For `CC1(C)CC[C@]2(C(=O)O)CC[C@]3(C)C(=CC[C@@H]4[C@@]5(C)CC[C@H](O)C(C)(C)[C@@H]5CC[C@]43C)[C@@H]2C1` [OLEANOLIC_ACID], the outcome in series [7], in series [9], in series [10], in series [13], in [14] and in [15] was Active. Further, the outcome in series [17], in series [18], in series [20], in series [27] and in series [30] was Active. The inhibition in vivo at 1 mg/kg in series [8] was 48%; in series [28] it was 30.9%. Moreover, the Activity entry is “Non-Toxic” in series [11]; 71.16% in [21]; “Non-Toxic” in series [22]; 54.89% in series [24]; “Non-Toxic” in [26]. Besides, the inhibition entry in series [12], in series [16], in series [19] and in series [23] was “Active” each time. In addition, the values for the inhibition in vivo at 10 mg/kg in series [25] and in [29] were 31.2% and 54.8%, respectively.
